One data set relates to A549. The data set is described as follows: 72-h MTT cellular proliferation assay, A549. It is filed as cell-based. The following applies: Homo sapiens, A549, 72 h; read-out: Anti-proliferative activity on tumour cell lines (MTT assay) A549 IC50. Here is the method: (§1) Cellular proliferation assays using human tumour cell lines (obtained from the American Type Culture Collection, 10801 University Boulevard, Manessas, Va. 20110-2209, USA) were carried out. Standard 72-h MTT (thiazolyl blue; 3-[4,5-dimethylthiazol-2-yl]-2,5-diphenyltetrazolium bromide) assays were performed (Loveland et al, Biochem. Int., 1992, 27, 501; Haselsberger et al, Anti Cancer Drugs, 1996, 7, 331). In short: cells were seeded into 96-well plates according to doubling time and incubated overnight at 37° C. Test compounds were made up in DMSO and a ⅓ dilution series prepared in 100 μL cell media, added to cells (in triplicates) and incubated for 72 h at 37° C. MTT was made up as a stock of 5 mg/mL in cell media and filter-sterilised. Media was removed from cells followed by a wash with 200 μL PBS. MTT solution was then added at 20 μL per well and incubated in the dark at 37° C. for 4 h. MTT solution was removed and cells again washed with 200 μL PBS. MTT dye was solubilised with 200 μL per well of DMSO with agitation.

In another data set the test system is HELA. The data set is described as follows: 72-h MTT cellular proliferation assay, HELA. The following applies: Homo sapiens, read-out: Anti-proliferative activity on tumour cell lines (MTT assay) HELA IC50. It is filed as cell-based. How it is done:
as §1
(Tetrazolium assays rely on reduction of a dye to a coloured formazan, in cell work by metabolically active cells.)

A further data set relates to MCF-7. The data set is described as follows: 72-h MTT cellular proliferation assay, MCF-7. The following applies: Homo sapiens, MCF7; MCF-7, 72 h; read-out: Anti-proliferative activity on tumour cell lines (MTT assay) MCF-7 IC50. It is filed as cell-based. How it is done: as §1
In the next data set the test system is U2OS. The data set is described as follows: 72-h MTT cellular proliferation assay, U2OS. It is filed as cell-based. To be noted: Homo sapiens, read-out: Anti-proliferative activity on tumour cell lines (MTT assay) U2OS IC50. Here is the method: as §1
The target in another data set is T1, human PLK1 (Homo sapiens, UniProt P53350).
T1 construct: A full-length human PLK1 (XM—047240) (amino acids 1-603) clone; His6 (N); made in house; host or cells: Sf9 insect cells (baculovirus) for PLK1; E. coli BL21(DE3) RIL for CDC25C
The data set is described as follows: PLK1 protein kinase assay (CDC25C phosphorylation, [γ-32P]-ATP). To be noted: read-out: PLK1 kinase inhibition IC50. It is filed as biochemical. An excerpt: A full-length human CDC25C clone was isolated by PCR from HeLa mRNA and was inserted on a BamHI-HindIII fragment into pRsetA. The amino terminal fragment of CDC25C (encoding residues 1-300) was excised from this vector and inserted into pET28a (between the NcoI and BamHI sites). Expression was under the control of the T7 promoter, and the encoded protein contained a His6 tag at the carboxyl terminus. The vector was transformed into E. coli strain BRL(DE3) pLysS for expression experiments. CDC25C was expressed in BL21(DE3) RIL bacteria cells, grown in LB media at 37° C. until OD600nm of 0.6 was reached. The expression was induced with 1 mM IPTG and the bacterial culture was grown further for 3 h. The bacteria were harvested by centrifugation and the cell pellet was re-suspended in 50 mM Tris pH 7.5 and 10% sucrose, flash frozen, and stored at −70° C. until used. CDC25C protein was purified from E. coli inclusion bodies. The inclusion bodies were isolated in a buffer (50 mM Tris pH 8.0, 2 mM EDTA, 100 mM NaCl, 0.5% triton X-100). After denaturation in the presence of 6 M urea, the protein was refolded via slow dialysis of the urea. The protein was stored in 25 mM Tris pH 8.0, 100 mM NaCl, 1 mM DTT, 1 mM EDTA and 10% glycerol at −70° C. until used.
A full-length human PLK1 (XM—047240) (amino acids 1-603) clone was amplified from a foetal lung cDNA library using primers incorporating restriction enzyme sites. […] The 3′ primer ([…]) incorporated a stop codon prior to the EcoR1 site. The PCR product was cloned into the Nhe1/EcoR1 sites of a baculovirus expression vector, pSSP 1. […] Cells were only used for expression in logarithmic growth phase. […] The flasks were incubated at 27° C., with shaking at 100 r.p.m. for 48 h. On harvest, cell density and viability was determined, the cultures spun down at 2500 r.p.m. for 5 min and washed with ice-cold phosphate-buffered saline. The wash was re-spun at the same speed and the pellet was snap frozen. PLK1 protein was purified on a metal affinity column.
PLK1 protein kinase assays were carried out using a 96-well plate format by incubating CDC25C (2 μg/well) with PLK1 (1 μg/well) in 20 mM Tris/HCl buffer pH 7.5, supplemented with 25 mM β-glycerophosphate, 5 mM EGTA, 1 mM DTT and 1 mM NaVO3. Serial dilutions of test compound in assay buffer were added. […] The reaction mixture was incubated at 30° C. for 1 h, then stopped with 75 mM aq orthophosphoric acid, transferred onto a 96-well P81 filter plate (Whatman), dried, and the extent of CDC25C phosphorylation was assessed by scintillation counting using a Packard TopCount plate reader. The raw assay data was analysed by non-linear regression analysis parameters and IC50 values were determined using the equation: y=A+((B−A)/(1+((C/x)ˆD))), where y is % inhibition, A is minimum inhibition, B is maximum inhibition, C is EC50, and D is the slope factor.

Read-outs that look alike come from different tables or passages of the source.

T1 sequence (P53350 whole entry, the tested form may be a part): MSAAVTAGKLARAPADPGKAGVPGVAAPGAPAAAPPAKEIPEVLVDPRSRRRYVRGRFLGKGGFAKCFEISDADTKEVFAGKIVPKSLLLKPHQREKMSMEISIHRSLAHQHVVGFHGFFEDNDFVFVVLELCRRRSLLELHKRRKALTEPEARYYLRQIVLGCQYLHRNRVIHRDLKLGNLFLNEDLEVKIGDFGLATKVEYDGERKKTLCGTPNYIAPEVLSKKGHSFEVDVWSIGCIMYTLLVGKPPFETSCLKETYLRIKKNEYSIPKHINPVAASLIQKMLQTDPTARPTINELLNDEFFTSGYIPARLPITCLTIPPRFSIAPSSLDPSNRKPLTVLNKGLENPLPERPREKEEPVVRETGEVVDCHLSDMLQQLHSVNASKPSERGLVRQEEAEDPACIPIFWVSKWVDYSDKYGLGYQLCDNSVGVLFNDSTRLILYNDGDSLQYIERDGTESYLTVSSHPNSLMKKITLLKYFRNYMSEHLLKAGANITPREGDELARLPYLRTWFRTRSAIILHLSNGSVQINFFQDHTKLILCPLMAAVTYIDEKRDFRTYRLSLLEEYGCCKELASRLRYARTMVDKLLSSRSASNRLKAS

For `NC(=O)c1sc2c([N+](=O)[O-])cc(C(F)(F)F)cc2[n+]1[O-]` [Compound 1a, 7-Nitro-3-oxy-5-trifluoromethyl-benzothiazole-2-carboxylic acid amide], the IC50 in the data set with A549 was 24 ± 3 µM; with HELA it was 16 ± 8 µM; in the data set with MCF-7, 12.6 ± 6.3 µM; with U2OS, 47 ± 7 µM.

On to `O=C(c1sc2c([N+](=O)[O-])cc(C(F)(F)F)cc2[n+]1[O-])N1CCCC1` [Compound 1b, (7-Nitro-3-oxy-5-trifluoromethyl-benzothiazol-2-yl)-pyrrolidin-1-yl-methanone], for which the IC50 at human PLK1 (100 μM ATP) turned out to be 56 ± 19 µM; with A549 it was 5.2 µM; with HELA it was 12 µM; in the data set on U2OS it was 16 µM.

As for `NNC(=O)c1sc2c([N+](=O)[O-])cc(C(F)(F)F)cc2[n+]1[O-]` [Compound 1c, 7-Nitro-3-oxy-5-trifluoromethyl-benzothiazole-2-carboxylic acid hydrazide], the melting point was 229 to 230 °C. The half-maximal inhibitory concentration (IC50) at human PLK1 (100 μM ATP) was above 100 µM. In the data set with A549, the IC50 was 21 ± 3 µM. The IC50 with HELA was found to be 16 ± 10 µM. The concentration for half-maximal inhibition (IC50) in the data set with MCF-7 was found to be 19 ± 16 µM. For the same compound, in the data set with U2OS, the IC50 came out at 35 ± 3 µM.

In the case of `N#Cc1cc([N+](=O)[O-])c2sc(C(N)=O)[n+]([O-])c2c1` [Compound 1d, 5-Cyano-7-nitro-3-oxy-benzothiazole-2-carboxylic acid amide], the IC50 was 10 ± 7 µM on human PLK1 (100 μM ATP); 4.2 ± 1.5 µM in the data set on A549; 6.6 ± 0.8 µM in the data set on HELA; 2 ± 2 µM in the data set on MCF-7; 6.7 ± 1.2 µM with U2OS.

In the case of `O=C(NO)c1sc2c([N+](=O)[O-])cc(C(F)(F)F)cc2[n+]1[O-]` [Compound 1e, 7-Nitro-3-oxy-5-trifluoromethyl-benzothiazole-2-carboxylic acid hydroxyamide], the melting point was 230 to 231 °C. Besides, the IC50 at human PLK1 (100 μM ATP) was 50 to 100 µM. Also, in the data set with A549, the concentration for half-maximal inhibition (IC50) came out at 13.3 ± 0.6 µM. The IC50 with HELA stood at 21 ± 4 µM. For the same compound, the IC50 with MCF-7 was found to be 9 ± 1 µM. Further, the IC50 in the data set with U2OS is 29.4 ± 1.2 µM.

On to `NC(=O)c1sc2c([N+](=O)[O-])cc(F)cc2[n+]1[O-]` [Compound 1f, 5-Fluoro-7-nitro-3-oxy-benzothiazole-2-carboxylic acid amide], for which the IC50 is 50 to 100 µM on human PLK1 (kinase assay at 10 μM ATP); 3.9 ± 0.2 µM in the data set with A549; 10.2 ± 2.4 µM in the data set with HELA; 1.6 ± 0.2 µM in the data set with MCF-7; 11.5 ± 2 µM in the data set with U2OS.

With `O=C(NO)c1sc2c([N+](=O)[O-])cc(F)cc2[n+]1[O-]` [Compound 1g, 5-Fluoro-7-nitro-3-oxy-benzothiazole-2-carboxylic acid hydroxyamide], the melting point fell in the range of 224 to 225 °C. Further, the IC50 on human PLK1 (100 μM ATP) came out at 67 ± 7 µM. Moreover, the IC50 in the data set with A549 came out at 7.7 ± 2.9 µM. In addition, the half-maximal inhibitory concentration (IC50) in the data set on HELA stood at 14 ± 5 µM. In addition, the IC50 in the data set with MCF-7 came to 6.1 ± 1.1 µM. For the same compound, in the data set with U2OS, the concentration for half-maximal inhibition (IC50) stood at 7.2 ± 3.6 µM.

`N#Cc1sc2c([N+](=O)[O-])cc(C(F)(F)F)cc2[n+]1[O-]` [Compound 1h, 7-Nitro-3-oxy-5-trifluoromethyl-benzothiazole-2-carbonitrile]: the IC50 at human PLK1 (100 μM ATP) stood at 21 µM; in the data set with A549, 10 ± 0.08 µM; in the data set with HELA, 10.2 ± 3.3 µM; in the data set on MCF-7, 2.1 ± 1.5 µM; with U2OS, 9.5 ± 1.7 µM.

`O=[N+]([O-])c1cc(C(F)(F)F)cc2c1sc(O)[n+]2[O-]` [Compound 1i, 7-Nitro-3-oxy-5-trifluoromethyl-benzothiazol-2-ol]: the half-maximal inhibitory concentration (IC50) at human PLK1 (100 μM ATP) is 39 µM; in the data set with A549, 48 ± 5 µM; with HELA it was 56 ± 2 µM; with MCF-7 it was 35 ± 2 µM; with U2OS, 88 ± 10 µM.

Compound `NC(=O)c1sc2c([N+](=O)[O-])cc(SC(F)(F)F)cc2[n+]1[O-]` [Compound 1j, 7-Nitro-3-oxy-5-trifluoromethylsulfanyl-benzothiazole-2-carboxylic acid amide] registered a melting point of 255 to 256 °C. Further, in the data set with A549, the IC50 was 4 ± 1.8 µM. Further, the IC50 in the data set on HELA is 6 ± 0.8 µM. Also, in the data set with MCF-7, the IC50 worked out at 2.5 ± 1 µM. Also, in the data set with U2OS, the IC50 is 8.2 ± 0.3 µM.

One may read the IC50 as the concentration that gives 50% inhibition. As usually defined, the melting point is the temperature of the solid-liquid transition.

The values are drawn from patent US20060040997A1, “Benzthiazole-3 oxides useful for the treatment of proliferative disorders” (priority 2003, published 2006).
